Experimental data from publication PMC12607891, “A broadly conserved fungal chorismate mutase targets the plant shikimate pathway to regulate salicylic acid production and other secondary metabolites” (mBio, 2025).

Legend:
[1] = molecular target: T1, Cmu1 (Mycosarcoma maydis, UniProt A0A0D1DWQ2); test: absorbance at […] nm, prephenate converted to phenylpyruvate; type: biochemical; details: weak chorismate mutase activity assay; conditions as in cited procedure
T1 construct: His-tagged, pET, E. coli BL21, Ni-NTA

[2] = molecular target: T2, AtCM3 (Arabidopsis thaliana, UniProt Q9C544); test: as above; type: biochemical; details: chorismate mutase activity assay; conditions as in cited procedure
T2 construct: gene CM3; His-tagged, pET, E. coli BL21, Ni-NTA
T2 sequence (Q9C544 48-316): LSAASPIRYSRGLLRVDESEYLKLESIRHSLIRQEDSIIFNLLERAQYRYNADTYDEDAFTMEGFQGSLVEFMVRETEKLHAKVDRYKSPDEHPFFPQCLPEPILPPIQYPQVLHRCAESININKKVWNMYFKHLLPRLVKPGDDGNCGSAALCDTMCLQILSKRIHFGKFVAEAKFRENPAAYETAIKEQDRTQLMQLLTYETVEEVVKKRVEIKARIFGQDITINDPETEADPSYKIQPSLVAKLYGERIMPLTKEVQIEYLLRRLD

[3] = molecular target: T3, AtCM1 (Arabidopsis thaliana, UniProt P42738); test: as above; type: biochemical; details: chorismate mutase activity assay; conditions as in cited procedure
T3 construct: gene CM1; His-tagged, pET, E. coli BL21, Ni-NTA
T3 sequence (P42738 66-340): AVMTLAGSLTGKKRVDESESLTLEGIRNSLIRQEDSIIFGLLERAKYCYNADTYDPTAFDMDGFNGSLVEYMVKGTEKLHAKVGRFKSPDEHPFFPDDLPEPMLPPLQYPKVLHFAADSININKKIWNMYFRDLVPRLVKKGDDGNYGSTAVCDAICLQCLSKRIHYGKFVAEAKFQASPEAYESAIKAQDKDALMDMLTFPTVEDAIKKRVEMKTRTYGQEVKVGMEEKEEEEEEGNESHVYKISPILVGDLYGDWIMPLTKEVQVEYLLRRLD

[4] = molecular target: T4, AtCM2 (Arabidopsis thaliana, UniProt Q9S7H4); test: as above; type: biochemical; details: chorismate mutase activity assay; conditions as in cited procedure
T4 construct: gene CM2; His-tagged, pET, E. coli BL21, Ni-NTA; cytosolic enzyme
T4 sequence (Q9S7H4 1-265): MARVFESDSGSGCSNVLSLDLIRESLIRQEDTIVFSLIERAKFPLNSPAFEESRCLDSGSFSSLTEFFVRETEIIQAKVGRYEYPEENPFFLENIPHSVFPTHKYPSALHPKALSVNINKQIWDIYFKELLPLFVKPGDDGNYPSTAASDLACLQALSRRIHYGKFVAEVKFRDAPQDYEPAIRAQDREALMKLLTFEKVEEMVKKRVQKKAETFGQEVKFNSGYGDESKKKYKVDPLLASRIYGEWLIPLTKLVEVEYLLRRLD

[5] = molecular target: T5, SsCM1 (Sclerotinia sclerotiorum, UniProt A7F9N9); test: as above; type: biochemical; details: weak chorismate mutase activity assay; conditions as in cited procedure
T5 construct: gene SS1G_14320; His-tagged, pET, E. coli BL21, Ni-NTA

[6] = molecular target: T6, SsCM1 ΔSP/cTP1-66 (Sclerotinia sclerotiorum, UniProt A7F9N9); test: HPLC of salicylic acid made in E. coli KRX expressing the protein; type: cell-based; details: endogenous isochorismate of E. coli; 24 °C overnight, IPTG and rhamnose induction; isochorismate pyruvate lyase activity
T6 construct: gene SS1G_14320; residues 1-66 (signal peptide and chloroplast targeting peptide) removed; codon-optimized, pET28a, in E. coli KRX cells
T6 sequence (A7F9N9 entry or part of it, stated change not applied): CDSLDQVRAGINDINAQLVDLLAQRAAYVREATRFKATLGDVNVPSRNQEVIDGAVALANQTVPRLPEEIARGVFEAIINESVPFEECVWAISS

T1 sequence (A0A0D1DWQ2 22-290): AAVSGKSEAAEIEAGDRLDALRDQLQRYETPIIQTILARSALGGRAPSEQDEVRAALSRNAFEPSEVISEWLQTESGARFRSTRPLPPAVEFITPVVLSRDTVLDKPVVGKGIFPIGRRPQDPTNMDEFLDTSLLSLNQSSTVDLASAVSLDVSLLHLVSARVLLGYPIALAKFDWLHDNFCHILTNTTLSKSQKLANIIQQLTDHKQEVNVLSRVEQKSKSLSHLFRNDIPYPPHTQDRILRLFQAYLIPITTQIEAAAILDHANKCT
T5 sequence (A7F9N9 entry or part of it): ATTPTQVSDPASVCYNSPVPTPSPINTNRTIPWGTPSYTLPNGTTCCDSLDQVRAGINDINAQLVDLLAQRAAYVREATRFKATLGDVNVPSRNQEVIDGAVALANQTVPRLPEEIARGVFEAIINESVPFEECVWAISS

| Compound | absorbance at 320 nm, prephenate converted to phenylpyruvate [1] | absorbance at 320 nm, prephenate converted to phenylpyruvate [2] | absorbance at 320 nm, prephenate converted to phenylpyruvate [3] | absorbance at 320 nm, prephenate converted to phenylpyruvate [4] | absorbance at 320 nm, prephenate converted to phenylpyruvate [5] | HPLC of salicylic acid made in E. coli KRX expressing the protein [6] |
| --- | --- | --- | --- | --- | --- | --- |
| C=C(O[C@@H]1C=C(C(=O)O)C=C[C@H]1O)C(=O)O [chorismate] | all tested chorismate mutases are able to convert chorismate into prephenate | all tested chorismate mutases are able to convert chorismate into prephenate | all tested chorismate mutases are able to convert chorismate into prephenate | all tested chorismate mutases are able to convert chorismate into prephenate | all tested chorismate mutases are able to convert chorismate into prephenate |  |
| C=C(O[C@H]1C=CC=C(C(=O)O)[C@@H]1O)C(=O)O [isochorismate] |  |  |  |  |  | SsCM1 possesses some IPL activity when expressed in E. coli |
